# Source: US20070225371A1, “Dermatological composition containing alkyl ureas” (priority 2006, published 2007)
# How the values were obtained:
# RNase A = biological target: T1, RNase A (Bos taurus, UniProt P61823); assay: Thermal denaturation of protein RNase A in urea or 1-butyl urea solution (Poklar et al.); type: biochemical; conditions: for 0.7 M of 1-butyl urea; estimated from temperature profiles of conformational transition of RNase A
# T1 sequence (P61823 27-150): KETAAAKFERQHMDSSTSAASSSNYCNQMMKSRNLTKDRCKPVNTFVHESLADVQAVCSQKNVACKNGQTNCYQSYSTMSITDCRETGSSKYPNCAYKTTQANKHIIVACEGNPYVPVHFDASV
# Excerpt: In their thermal denaturation studies of protein RNase A in alkyl urea solutions, Poklar et al., “Thermodynamic Stability of Ribonuclease A in Alkylurea Solutions and Preferential Solvation Changes Accompanying its Thermal Denaturation: A Calorimetric and Spectroscopic Study” in Protein Science, 8:832-840 (1999) report that the thermal stability of RNase A in solution decreases with increasing concentrations of denaturants and the size of the hydrophobic group substituted on the urea molecule.
# Based on the temperature profiles of conformational transition (denaturation) of protein RNase A in urea or in 1-butyl urea solution, it can be estimated that 0.7 M of 1-butyl urea is equivalent to about 3.5 M of urea in terms of their protein denaturing capability. These studies provide a general guideline on estimating relative keratolytic activity of urea vs. 1-butyl urea in a dermatological composition.
# [1] = equal to about 36 to 42% by weight; cited from earlier work
Compound,urea concentration equivalent in protein denaturing capability (RNase A),concentration minimally needed to show any noticeable keratolytic or protein denaturing activity [1] [M]
CCCCNC(N)=O [1-butyl urea],about 3.5 M,–
NC(N)=O [urea],–,6 to 7
